Measured values: patent EP0003353A1, “A pharmaceutical composition for oral administration for treating hypertension” (Merck & Co., Inc., priority 1978, dated 1979)

Test system: spontaneously hypertensive (SH) rats
Test: Mean arterial pressure of conscious SH rats, direct measurement by cannulation of the caudal artery
Assay type: in vivo
Settings: for Mean arterial pressure at hours after treatment 0: 0 h; for Mean arterial pressure at hours after treatment 1/2: 1/2 h; for Mean arterial pressure at hours after treatment 1: 1 h; for Mean arterial pressure at hours after treatment 2: 2 h; for Mean arterial pressure at hours after treatment 4: 4 h; for Mean arterial pressure at hours after treatment 8: 8 h; for Mean arterial pressure at hours after treatment 12: 12 h; for Mean arterial pressure at hours after treatment 18: 18 h; for Mean arterial pressure at hours after treatment 24: 24 h
Description: The test procedure used is substantially as follows: • The test animals used were conscious, male, SH rats weighing about 290 to about 340 grams. The arterial blood pressure was measured by a direct technique involving cannulation of the caudal artery. Initial blood pressure reading was recorded. The decarboxylase inhibitor was then administered intraperitoneally (i.p.) and about 5 minutes later the L-a-methyl-p-tyrosine was given [(i.p. or orally (p.o.)]. The blood pressure was then continuously recorded at 1/2 hour intervals for 24 hours. The effect on blood pressure of the decarboxylase inhibitor and the L-a-methyl-p-tyrosine alone was also obtained by this test method. The results of representative tests are in the following table: […]

[1] = Test No. 2, Carbidopa 25 mg/kg i.p.
[2] = Test No. 13, Carbidopa 25 mg/kg i.p.
[3] = Test No. 3, α-methyl-p-tyrosine 5 mg/kg i.p.
[4] = Test No. 4, α-methyl-p-tyrosine 20 mg/kg i.p.
[5] = Test No. 5, α-methyl-p-tyrosine 40 mg/kg i.p.
[6] = Test No. 6, α-methyl-p-tyrosine 80 mg/kg i.p.
[7] = Test No. 14, α-Methyl-p-tyrosine 80 mg/kg p.o.

**Q.** With C[C@@](Cc1ccc(O)c(O)c1)(NN)C(=O)O [Carbidopa] as the compound, how does the “Mean arterial pressure at hours after treatment 0” value [1] read?
**A.** 167 mm Hg

**Q.** And the “Mean arterial pressure at hours after treatment 1/2” value [1]?
**A.** 166 mm Hg

**Q.** What about the “Mean arterial pressure at hours after treatment 1” value [1] of the same compound?
**A.** 164 mm Hg

**Q.** And the “Mean arterial pressure at hours after treatment 2” value [1]?
**A.** 166 mm Hg

**Q.** And the “Mean arterial pressure at hours after treatment 4” value [1]?
**A.** 158 mm Hg

**Q.** And the “Mean arterial pressure at hours after treatment 8” value [1]?
**A.** 167 mm Hg

**Q.** What about the “Mean arterial pressure at hours after treatment 12” value [1] of the same compound?
**A.** 172 mm Hg

**Q.** And the “Mean arterial pressure at hours after treatment 18” value [1]?
**A.** 172 mm Hg

**Q.** What about the “Mean arterial pressure at hours after treatment 24” value [1] of the same compound?
**A.** 162 mm Hg

**Q.** What about the “Mean arterial pressure at hours after treatment 0” value [2] of the same compound?
**A.** 184 mm Hg

**Q.** And the “Mean arterial pressure at hours after treatment 1/2” value [2]?
**A.** 184 mm Hg

**Q.** What about the “Mean arterial pressure at hours after treatment 1” value [2] of the same compound?
**A.** 180 mm Hg

**Q.** And the “Mean arterial pressure at hours after treatment 2” value [2]?
**A.** 178 mm Hg

**Q.** And the “Mean arterial pressure at hours after treatment 4” value [2]?
**A.** 177 mm Hg

**Q.** What about the “Mean arterial pressure at hours after treatment 8” value [2] of the same compound?
**A.** 184 mm Hg

**Q.** And the “Mean arterial pressure at hours after treatment 12” value [2]?
**A.** 183 mm Hg

**Q.** And the “Mean arterial pressure at hours after treatment 18” value [2]?
**A.** 185 mm Hg

**Q.** And the “Mean arterial pressure at hours after treatment 24” value [2]?
**A.** 182 mm Hg

**Q.** With C[C@](N)(Cc1ccc(O)cc1)C(=O)O [α-methyl-p-tyrosine, L-α-methyl-p-tyrosine] as the compound, how does the “Mean arterial pressure at hours after treatment 0” value [3] read?
**A.** 165 mm Hg

**Q.** What about the “Mean arterial pressure at hours after treatment 1/2” value [3] of the same compound?
**A.** 155 mm Hg

**Q.** What about the “Mean arterial pressure at hours after treatment 1” value [3] of the same compound?
**A.** 162 mm Hg

**Q.** And the “Mean arterial pressure at hours after treatment 2” value [3]?
**A.** 160 mm Hg

**Q.** What about the “Mean arterial pressure at hours after treatment 4” value [3] of the same compound?
**A.** 161 mm Hg

**Q.** And the “Mean arterial pressure at hours after treatment 8” value [3]?
**A.** 167 mm Hg

**Q.** What about the “Mean arterial pressure at hours after treatment 12” value [3] of the same compound?
**A.** 164 mm Hg

**Q.** What about the “Mean arterial pressure at hours after treatment 18” value [3] of the same compound?
**A.** 168 mm Hg

**Q.** And the “Mean arterial pressure at hours after treatment 24” value [3]?
**A.** 164 mm Hg

**Q.** What about the “Mean arterial pressure at hours after treatment 0” value [4] of the same compound?
**A.** 165 mm Hg

**Q.** And the “Mean arterial pressure at hours after treatment 1/2” value [4]?
**A.** 152 mm Hg

**Q.** What about the “Mean arterial pressure at hours after treatment 1” value [4] of the same compound?
**A.** 159 mm Hg

**Q.** What about the “Mean arterial pressure at hours after treatment 2” value [4] of the same compound?
**A.** 157 mm Hg

**Q.** And the “Mean arterial pressure at hours after treatment 4” value [4]?
**A.** 146 mm Hg

**Q.** And the “Mean arterial pressure at hours after treatment 8” value [4]?
**A.** 156 mm Hg

**Q.** And the “Mean arterial pressure at hours after treatment 12” value [4]?
**A.** 155 mm Hg

**Q.** And the “Mean arterial pressure at hours after treatment 18” value [4]?
**A.** 161 mm Hg

**Q.** What about the “Mean arterial pressure at hours after treatment 24” value [4] of the same compound?
**A.** 166 mm Hg

**Q.** What about the “Mean arterial pressure at hours after treatment 0” value [5] of the same compound?
**A.** 166 mm Hg

**Q.** And the “Mean arterial pressure at hours after treatment 1/2” value [5]?
**A.** 148 mm Hg

**Q.** What about the “Mean arterial pressure at hours after treatment 1” value [5] of the same compound?
**A.** 152 mm Hg

**Q.** What about the “Mean arterial pressure at hours after treatment 2” value [5] of the same compound?
**A.** 145 mm Hg

**Q.** What about the “Mean arterial pressure at hours after treatment 4” value [5] of the same compound?
**A.** 135 mm Hg

**Q.** And the “Mean arterial pressure at hours after treatment 8” value [5]?
**A.** 140 mm Hg

**Q.** What about the “Mean arterial pressure at hours after treatment 12” value [5] of the same compound?
**A.** 134 mm Hg

**Q.** What about the “Mean arterial pressure at hours after treatment 18” value [5] of the same compound?
**A.** 130 mm Hg

**Q.** What about the “Mean arterial pressure at hours after treatment 24” value [5] of the same compound?
**A.** 135 mm Hg

**Q.** What about the “Mean arterial pressure at hours after treatment 0” value [6] of the same compound?
**A.** 167 mm Hg

**Q.** And the “Mean arterial pressure at hours after treatment 1/2” value [6]?
**A.** 166 mm Hg

**Q.** What about the “Mean arterial pressure at hours after treatment 1” value [6] of the same compound?
**A.** 158 mm Hg

**Q.** And the “Mean arterial pressure at hours after treatment 2” value [6]?
**A.** 146 mm Hg

**Q.** And the “Mean arterial pressure at hours after treatment 4” value [6]?
**A.** 138 mm Hg

**Q.** What about the “Mean arterial pressure at hours after treatment 8” value [6] of the same compound?
**A.** 131 mm Hg

**Q.** And the “Mean arterial pressure at hours after treatment 12” value [6]?
**A.** 130 mm Hg

**Q.** What about the “Mean arterial pressure at hours after treatment 18” value [6] of the same compound?
**A.** 136 mm Hg

**Q.** And the “Mean arterial pressure at hours after treatment 24” value [6]?
**A.** 130 mm Hg

**Q.** What about the “Mean arterial pressure at hours after treatment 0” value [7] of the same compound?
**A.** 169 mm Hg

**Q.** What about the “Mean arterial pressure at hours after treatment 1/2” value [7] of the same compound?
**A.** 165 mm Hg

**Q.** What about the “Mean arterial pressure at hours after treatment 1” value [7] of the same compound?
**A.** 166 mm Hg

**Q.** What about the “Mean arterial pressure at hours after treatment 2” value [7] of the same compound?
**A.** 161 mm Hg

**Q.** And the “Mean arterial pressure at hours after treatment 4” value [7]?
**A.** 143 mm Hg

**Q.** What about the “Mean arterial pressure at hours after treatment 8” value [7] of the same compound?
**A.** 147 mm Hg

**Q.** What about the “Mean arterial pressure at hours after treatment 12” value [7] of the same compound?
**A.** 161 mm Hg

**Q.** And the “Mean arterial pressure at hours after treatment 18” value [7]?
**A.** 165 mm Hg

**Q.** And the “Mean arterial pressure at hours after treatment 24” value [7]?
**A.** 173 mm Hg
